In a melting point compilation (Tetko et al.; mined from patent text by program, amines drawn as free bases though some values may be those of a salt):
Residues, ends and D or L forms follow the SMILES beside them. *: point of attachment. Boc = CC(C)(C)OC(=O)*; OBn = c1ccc(CO*)cc1; Bn = c1ccc(C*)cc1

melting point | SMILES
83 °C | Fc1cc(Cl)c(Br)c(Cl)c1
155 to 157 °C | Cc1c(C(=O)Nc2ccc(OCCCN3CCOCC3)c(C#N)c2)cnn1-c1ccc(Cl)cc1
145 to 146 °C | CCN(CC)C(=O)c1cc(O)c(O)c([N+](=O)[O-])c1
172 to 173 °C | O=C(O)[C@@]12C[C@@H](c3ccccc31)c1ccc(Cl)cc12
84 to 86 °C | CC(C)N1C(=O)NC(c2ccc3ocnc3c2)c2cc3c(cc21)OCO3 (stereo not given)
148 to 150 °C | O=C(NCc1cncs1)c1ccnc(N2CCN(Cc3ccc(F)cc3)C2=O)c1
220 to 225 °C | Nc1c(-c2ccc(Oc3ccccc3)cc2)nc2ccc(C(F)(F)F)cc2c1C(=O)O
184 to 187 °C | CS(=O)(=O)Nc1ccc(CCN2CCc3ccc(NS(C)(=O)=O)cc3CC2)cc1
162 to 164 °C | O=c1cc(CN2CCOCC2)oc(-c2ccc(O)cc2)c1
85 to 95 °C | Cc1ccc2c(c1)S(=O)(=O)CC(COC(=O)Nc1ccccc1)(COC(=O)Nc1ccccc1)C2=O
168 to 170 °C | Cc1c(F)ccc(C(=O)O)c1F
172 °C | N#Cc1cccc(-c2cncc(OC3SCC(O)C(O)C3O)c2)c1 (stereo not given)
194 to 195 °C | CS(=O)(=O)NCCCCn1c(CCO)nc2c(N)nc3cccnc3c21
129 to 131 °C | CCCCc1ccc(C(=O)Cc2ccc(Br)cc2)cc1
212 to 213 °C | CN(CC1CCc2c(cccc2OCC(=O)O)C1)c1cnc(-c2ccccc2)c(-c2ccccc2)n1 (stereo not given)
117 to 119 °C | C(=C(c1ccccc1)c1ccccc1)c1ccccn1
129 to 131 °C | O=[N+]([O-])c1cc([N+](=O)[O-])c(Nc2nc(Cl)ccc2C(F)(F)F)c(C(F)(F)F)c1
126 to 127 °C | OCC(Oc1ccc(-c2ccccc2)cc1)c1ccccc1 (stereo not given)
96 to 98 °C | COC(=O)CN1CCC(NC(=O)OC(C)(C)C)CC1
109 to 110 °C | CCOc1cc(CCCOc2c(CC(=O)O)cccc2OC)n(Cc2ccc(Cl)cc2Cl)n1
124 to 125 °C | CCOC(=O)COc1ccccc1Cc1ccc2ccccc2c1O
214 °C | O=C(Nc1ccc(F)cc1)NN(c1ccccc1)c1ccccc1
165 to 167 °C | CCOc1ccccc1C1OC(=O)NC1=O (stereo not given)
182 to 184 °C | O=c1cc(CBr)c2ccc(O)cc2o1

melting point | SMILES
152 to 154 °C | COc1ccc(CC(SC)C(N)=O)cc1C(=O)NCc1ccc(C(F)(F)F)cc1 (stereo not given)
127 °C | CC(=O)N1CCN(CCOc2ccc(C3CCN(C4=Nn5c(nnc5C(F)(F)F)CC4)CC3)cc2)CC1
103 to 110 °C | Cc1cc(N)c(I)c(C)n1
192 °C | NS(=O)(=O)c1ccc(-c2cccc(-c3nc(-c4ccc(C(F)(F)F)cc4F)cc(C(F)(F)F)n3)c2)s1
122 to 123 °C | CC(C)c1nn(-c2ccc(C(F)(F)F)cn2)cc1CCCOc1nn(C)cc1CC(=O)O
143 to 144 °C | CN(C)CCNC(=O)c1nc(N)sc1-c1ccccn1
230 to 232 °C | CC(C)(Cn1c(CO)nc2c(N)nc3ccccc3c21)CS(C)(=O)=O
110 to 112 °C | C#CCn1c(=O)n(C)c2ccccc21
102 to 103 °C | COCCOc1ccc(CCNC(=O)OCc2ccccc2)c(Oc2ncc(C(F)(F)F)cc2Cl)c1
145 to 147 °C | CC(NC(=O)C(Cc1ccc(OCc2ccccc2)cc1)NC(=O)OC(C)(C)C)C(=O)NCC(=O)OCc1ccccc1 (stereo not drawn) (Boc-Tyr(Bn)-Ala-Gly-OBn; configuration not given here)
158 to 159 °C | O=C(O)CCNC(=O)C1=C(C(=O)Nc2ccc(Cl)cc2F)CCCC1
242 to 244 °C | Cc1ccc(-c2c(-c3ccc(S(C)(=O)=O)cc3)cnn(-c3ccc(F)cc3)c2=O)cc1
311 to 313 °C | Cc1[nH]c2ccccc2c1C1=C(c2c(C)[nH]c3ccccc23)C(=O)NC1=O
129 °C | CC(C)(C)OC(=O)NCC1CCN(CC2(C(=O)O)CCOCC2)CC1
106 to 107 °C | Nc1ccc(NC(=O)CN2CCCCC2)cc1
180 °C | CC(Cc1nc(-c2ccccc2)nc2ccccc12)C(=O)O (stereo not given)
136 to 137 °C | CCCC(=O)Cc1ccc(C(=O)Nc2ccc3cc(CN4CCCCCC4)cnc3c2C)cc1
58 to 60 °C | CCCCCCC1OC1(C(=O)OCC)C(=O)OCC (stereo not given)
130 to 131 °C | CCOC(=O)C1=C(C)Nc2ccnc(OC(C)C)c2C1c1ccccc1C(F)(F)F (stereo not given)
49 to 52 °C | CCOC(=O)CC(=O)c1c(F)cc(Br)cc1F
148 to 149 °C | CC(C)OC1C=CC(=O)N1S(=O)(=O)c1ccccc1 (stereo not given)
75 °C | C=CCOc1ccc(Oc2ccc(C(=O)OC)cc2)cc1
159 to 162 °C | CS(=O)(=O)Nc1ncc(SCc2ccccc2)s1
61 to 64 °C | O=C(Nc1nccs1)C(CC1CCCC1)c1cccc(S(=O)(=O)C(F)(F)F)c1 (stereo not given)

melting point | SMILES
102 °C | CN(C)Cc1ccc(CSCCNC(=O)NCCCN(C)CCN(Cc2ccc(F)cc2)c2ccccn2)o1
200 to 202 °C | CCCCc1nc(Cl)c(C(N)=O)n1Cc1ccc(-c2ccccc2C(=O)O)cc1
163 to 168 °C | CCN(CC)C1CCN(c2cccc(-c3cnn4c(N)c(-c5cccc(Cl)c5)c(C)nc34)c2)CC1
145 to 146 °C | Cc1ccccc1-c1nc(-c2ccccc2)c[nH]1
162 to 164 °C | O=C1CCC(c2cc(F)c(OC3CCN(C4CCC4)CC3)c(F)c2)=NN1
78.3 to 79.8 °C | COC(=O)c1cc(CBr)cc(C2(C#N)CC2)c1
121 to 123 °C | Oc1ccc(NCCCCCCCBr)cc1
187 to 188 °C | ON=Cc1cccc2cccc(N3CCCC3)c12
89 to 90 °C | C=CC(=O)c1ccc([N+](=O)[O-])cc1
113 to 115 °C | CC1(CN2CCC(C(=O)c3ccc(OC(F)(F)F)cc3)CC2)Cn2cc([N+](=O)[O-])nc2O1 (stereo not given)
80 to 82 °C | O=S(=O)(c1ccccc1)c1c[nH]c2c(CCN3CCN(Cc4ccccc4)CC3)cccc12
178 to 180 °C | CCOC(=O)CCC(C=Cc1ccc(OC)c(OC)c1)=C1SC(=S)NC1=O
206 to 208 °C | COc1cnc[nH]c1=O
83.5 to 85 °C | Cc1cc(Oc2csc(C(F)(F)F)c2)nc(-c2ccc(C(F)(F)F)cc2)n1
216 to 217 °C | Cc1ccccc1C(=O)CCc1c(C(=O)N2CCCC2)cc2c(nc(C)n2C)c1O
129 to 132 °C | Cc1cc(-c2cc(C(=O)O)c(=O)n(CC(C)C)n2)ccc1F
81 to 83 °C | C=CCOC(=O)OCc1ccc(C#N)cc1C(=O)O
212 to 213 °C | FC(F)C(F)(F)Sc1nc(-c2ccccc2)c(-c2ccccc2)[nH]1
155 to 159 °C | CC(C)(C)c1nc2cc(N3CCSCC3)c(N=C=S)cc2s1
115 to 117 °C | CC(=O)N[C@@H](CSC(C)=O)C(=O)NCCSC(=O)C(C)C
239 to 242 °C | CNc1cncc(C(=O)O)c1
104 °C | C[Si](C)(C)C#Cc1cn(C2CC(O)C(COC(c3ccccc3)(c3ccccc3)c3ccccc3)O2)c(=O)[nH]c1=O (stereo not given)
96 to 97 °C | CCCCCCCCCCCCOc1ccc2cc(C(C)C(=O)O)ccc2c1 (stereo not given)
154 to 155 °C | COC(=O)c1ccc(CN(Cc2cc(Br)ccc2OCc2ccccc2)c2ccc(C(=O)OC(C)(C)C)cc2)cc1

melting point | SMILES
100 °C | O=C(O)Cc1ccc(OCCNC(=O)C2Cc3ccccc3N2S(=O)(=O)c2ccc(-c3cc(C(F)(F)F)ccc3Cl)cc2)c(F)c1 (stereo not given)
178 to 180 °C | N#Cc1cccc(C(=O)N2CCN(c3ccc(NC(=O)c4ccccc4-c4ccc(C(F)(F)F)cc4)cc3)CC2)c1
222 to 224 °C | Cn1cc(S(C)(=O)=O)c(=O)c2ccc(F)cc21
215 to 216 °C | COc1ccc(-n2c(=O)oc(=O)c3ccccc32)cc1
149 °C | CCOC(=O)C1=C(N)N=C(N(C)C)C(C(=O)OCC)C1c1cccc([N+](=O)[O-])c1 (stereo not given)
67 to 69 °C | CN(C)CCNC(=O)c1ccc(Br)cc1
113 to 115 °C | Cc1ncc2c(=O)n(C)c(=O)n(C)c2n1
268 to 270 °C | CCC[C@H](NC(=O)[C@H](C)N)C(=O)N[C@@H](C)P(=O)(O)O
261 to 263 °C | N#Cc1ccc2nc3c(c(=O)n2c1)SCC3
153 °C | CN1CCC(OC2c3ccccc3CCn3c2nc(-c2ccccc2)c3I)CC1 (stereo not given)
261 to 262 °C | Oc1cc2ccccc2nc1O
109 to 110 °C | CCOC(=O)c1ccc(Sc2cc3c(cc2C)C(C)(C)CCC3(C)C)cc1
97 to 98 °C | CCCN(Cc1ccc(-c2ccccc2-c2nnn[nH]2)cc1)C1(C(=O)O)C=NSN1 (stereo not given)
211 to 212 °C | OC(COc1ccc(-c2cc[nH]n2)cc1)CN1CCN(c2ccc(Cl)cc2)CC1 (stereo not given)
140 to 142 °C | COc1ccccc1N1CCN(C(=O)N(C)c2nc(C)c(C)nc2OC)CC1
197 to 200 °C | COc1cc(NC2=C(Cl)C(=O)c3ccccc3C2=O)ccc1S(=O)(=O)Nc1ccccc1C
211 to 215 °C | CC1(N2C(=O)c3ccccc3S2(=O)=O)CCCNC1=O (stereo not given)
168 to 169 °C | COc1cc(C2(C)C(=O)Nc3ccccc3C2=O)ccc1O (stereo not given)
63 to 64 °C | CC(C)(C#N)c1ccc(OCc2ccccc2)cc1
158 to 160 °C | C=CC(=O)N1c2ccccc2CC1C(=O)O (stereo not given)
214 to 215 °C | COC(=O)c1cccc(Nc2nc(N)c(C(=O)c3ccccc3OC)s2)c1
286 to 287 °C | COc1ccc(C(=O)Nc2ccc(C(=O)O)cc2)cc1C12CC3CC(CC(C3)C1)C2

SMILES | melting point
N=C(N)NCCCCN[N+](=O)[O-] | 123 to 124 °C
NNC1=Nc2ccc(Cl)cc2C(c2ccccc2F)S(=O)(=O)CC1 (stereo not given) | 159 °C
Cc1ccc(Cl)cc1NC(=O)c1cc([N+](=O)[O-])ccc1NC(=O)CF | 210 to 212 °C
CN1C2C=C(c3c[nH]c4ccc([N+](=O)[O-])cc34)CC1CC2 (stereo not given) | 234 to 236 °C
NC(=O)OC(=O)C(Cl)(Cl)Cl | 183 to 184 °C
CCN(CC)OP(=O)(Oc1ccccc1)Oc1ccccc1 | 51 to 53 °C
